Assay results taken from patent US20230416261A1, “ETHANEDIAMINE-HETEROCYCLE DERIVATIVES AS INHIBITORS OF PROTEIN ARGININE METHYLTRANSFERASES” (Board of Regents, The University of Texas System, priority 2021, published 2023).

How the values were obtained:
DOHH2 cells = assay: DOHH2 Long Term Phenotypic Assay (7 days, Cell Titer-Glo viability); assay type: cell-based; settings: Homo sapiens, DOHH-2, 168 h, Cell Titer-Glo 2.0
Procedure, shortened: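 DOHH2 lymphoma cells (250 per well) in RPMI-1640 with 10% FBS were exposed to 1:3 serially diluted compounds for 7 days at 37 °C, 5% CO2. Viability was read by CellTiter-Glo 2.0 luminescence, and IC50 values came from four-parameter logistic fits.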

PRMT1 = PRMT1 (Homo sapiens, UniProt Q99873); assay: PRMT1 Enzymatic Assay (LANCE TR-FRET, methylation of histone H4 at Arg3); assay type: biochemical; parameters: purchased SignalChem P365-380G; settings: PRMT1 1.5 nM, SAM 1 μM, biotinylated histone H4 (1-21) 25 nM; read-out: PRMT-1 IC50
Procedure, shortened: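 PRMT1 (1.5 nM) preincubated 15 min with compound at room temperature, then reacted 1 h with 1 μM SAM and 25 nM biotinylated histone H4 (1-21) in 50 mM Hepes pH 8, 1 mM TCEP, 0.003% Tween-20. H4R3me detected by TR-FRET (665/620 nm ratio); IC50 from four-parameter logistic fit.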

PRMT1, sequence (Q99873 whole entry): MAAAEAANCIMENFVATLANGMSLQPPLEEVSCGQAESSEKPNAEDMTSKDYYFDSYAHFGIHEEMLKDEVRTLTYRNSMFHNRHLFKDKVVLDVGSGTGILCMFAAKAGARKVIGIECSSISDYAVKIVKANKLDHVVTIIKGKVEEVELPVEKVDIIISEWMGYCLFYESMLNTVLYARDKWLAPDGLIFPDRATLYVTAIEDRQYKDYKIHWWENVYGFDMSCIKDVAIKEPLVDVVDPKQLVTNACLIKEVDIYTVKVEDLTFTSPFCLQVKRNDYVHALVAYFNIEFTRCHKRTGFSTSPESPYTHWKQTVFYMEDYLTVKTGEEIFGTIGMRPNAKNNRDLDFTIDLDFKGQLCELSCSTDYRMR

Structure (SMILES) | IC50 (DOHH2 cells) | IC50 (PRMT1)
CNCCN(C)Cc1nn2c(c1C1CCC(COC)(COC)CC1)CN(C(=O)C1CCC1)CC2 [Example 1, (3-(4,4-Bis(methoxymethyl)cyclohexyl)-2-((methyl(2-(methylamino)ethyl)amino)methyl)-6,7-dihydropyrazolo[1,5-a]pyrazin-5(4H)-yl)(cyclobutyl)methanone] | 66 nM | 35 nM
COCC1(COC)CCC(c2c(CN(C)CCN)nn3c2CN(C(=O)C(C)(C)C)CC3)CC1 [Example 2, 1-(2-(((2-aminoethyl)(methyl)amino)methyl)-3-(4,4-bis(methoxymethyl)cyclohexyl)-6,7-dihydropyrazolo[1,5-a]pyrazin-5(4H)-yl)-2,2-dimethylpropan-1-one] | 158 nM | 16 nM
